Read-outs that look alike come from different tables or passages of the source.
Assays:
[1] = system: corn; conditions: applied 3 weeks before planting at rates of 2.2 to 9.0 kg/ha; cited from earlier work
[2] = system: annual bluegrass (Poa annua L.); conditions: pre-emergence or early post-emergence at 0.8 to 4.5 kg/ha; cited from earlier work
[3] = system: volunteer wheat (Triticum aestivum L.); conditions: cited from earlier work
[4] = system: barley and wheat; conditions: greenhouse studies; cited from earlier work
[5] = system: wheat crop plants; assay: Own experiments: safening effect of mefenpyr-diethyl used with flufenacet; assay type: in vivo; conditions: used with flufenacet (WSSA group 15 herbicide)

| Compound | corn yields [1] | control of annual bluegrass [2] | control of volunteer wheat ([3]; 1.7 kg/ha or more, wheat in the one- to three-leaf stage) | control of volunteer wheat ([3]; applied pre-emergence soon after planting or at the end of November to wheat in the four-leaf to four-tiller stage) | susceptibility of barley and wheat to soil residues relative to corn [4] | safening effect in wheat crop plants [5] |
| --- | --- | --- | --- | --- | --- | --- |
| CCOC1Oc2ccc(OS(C)(=O)=O)cc2C1(C)C (stereo not drawn) [Ethofumesate, 2-ethoxy-2,3-dihydro-3,3-dimethylbenzofuran-5-yl methanesulfonate] | reduced in proportion to the rate | eliminated annual bluegrass | eliminated the wheat | Wheat was not eliminated | about 10 times |  |
| CCOC(=O)C1=NN(c2ccc(Cl)cc2Cl)C(C)(C(=O)OCC)C1 (stereo not drawn) [Mefenpyr-diethyl, ethyl 1-(2,4-dichlorophenyl)-5-(ethoxycarbonyl)-5-methyl-2-pyrazoline-3-carboxylate] |  |  |  |  |  | does not have a safening effect |
